Measurements published in ChEMBL document CHEMBL4219105, “Novel polyamine-based Histone deacetylases-Lysine demethylase 1 dual binding inhibitors” (Bioorg Med Chem Lett, 2018).

Key:
MCF7 [1] = experiment: cells; assay type: functional, cell-based; conditions: Homo sapiens, MCF7, 24 h
Description: Cytotoxic activity against human MCF7 cells after 24 hrs by MTT assay

MCF7 [2] = experiment: Cytotoxic activity against human MCF7 cells assessed as reduction in cell viability at 4 uM after 24 hrs by MTT assay relative to control; assay type: functional
MCF7 [3] = experiment: Cytotoxic activity against human MCF7 cells assessed as reduction in cell viability at 35 uM after 24 hrs by MTT assay relative to control; assay type: functional
MCF7 [4] = experiment: Cytotoxic activity against human MCF7 cells assessed as reduction in cell viability at 70 uM after 24 hrs by MTT assay relative to control; assay type: functional
[5] = target: T1, Histone deacetylase (Homo sapiens) (UniProt Q13547+O15379+Q9UBN7+Q92769+Q9UQL6+Q8WUI4+Q9BY41+Q96DB2+P56524+Q9UKV0+Q969S8); experiment: Inhibition of HDAC in human MCF7 cell nuclear extract using acetylated lysine as substrate at 17 uM after 1 hr by colorimetric analysis relative to control; assay type: protein assay
[6] = target: T2, Lysine-specific histone demethylase 1A/REST corepressor (Homo sapiens, UniProt O60341+Q9P2K3)
Description: (§1) Inhibition of human recombinant LSD1/CoREST3 expressed in Escherichia coli using monomethylatedH3meK4 peptide as substrate preincubated for 15 mins followed by substrate addition measured after 12 mins by fluorescence based assay

HDAC1/REST corepressor 3 [7] = target: T3, HDAC1/REST corepressor 3 (Homo sapiens, UniProt Q13547+Q9P2K3)
T3 sequence (Q13547 whole entry, other chains not shown): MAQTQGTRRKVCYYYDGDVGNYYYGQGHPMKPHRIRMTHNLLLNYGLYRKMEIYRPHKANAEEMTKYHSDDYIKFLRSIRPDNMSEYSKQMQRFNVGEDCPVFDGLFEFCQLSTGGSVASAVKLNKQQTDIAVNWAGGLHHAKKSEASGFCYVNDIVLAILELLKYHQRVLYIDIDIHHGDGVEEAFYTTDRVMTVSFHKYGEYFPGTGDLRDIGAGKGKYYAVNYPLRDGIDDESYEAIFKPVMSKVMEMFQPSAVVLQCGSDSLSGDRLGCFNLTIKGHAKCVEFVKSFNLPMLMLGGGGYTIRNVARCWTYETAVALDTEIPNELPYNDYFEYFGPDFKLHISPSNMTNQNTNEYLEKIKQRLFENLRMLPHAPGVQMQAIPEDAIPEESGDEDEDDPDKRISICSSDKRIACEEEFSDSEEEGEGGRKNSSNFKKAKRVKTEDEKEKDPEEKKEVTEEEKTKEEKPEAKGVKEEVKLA
Description: (§2) Inhibition of HDAC1/CoREST3 in HEK293 whole cell extract using fluorescent acetylated histone peptide as substrate after 60 mins by fluorescence based assay

MCF7 [8] = experiment: Cytotoxic activity against human MCF7 cells assessed as reduction in cell viability at 16 uM after 24 hrs by MTT assay relative to control; assay type: functional
[9] = target: T1, Histone deacetylase (Homo sapiens); experiment: Inhibition of HDAC in human MCF7 cell nuclear extract using acetylated lysine as substrate at 70 uM after 1 hr by colorimetric analysis relative to control; assay type: protein assay
[10] = target: T2, Lysine-specific histone demethylase 1A/REST corepressor; remark: listed apart in the source
Description: as §1

HDAC1/REST corepressor 3 [11] = target: T3, HDAC1/REST corepressor 3; remark: listed apart in the source
Description: as §2

SMILES	IC50 (MCF7 [1]) [µM]	Activity (MCF7 [2]) [%]	Activity (MCF7 [3]) [%]	Activity (MCF7 [4]) [%]	inhibition [5] [%]	IC50 [6] [µM]	Ki (HDAC1/REST corepressor 3 [7]) [µM]	Activity (MCF7 [8]) [%]	inhibition [9] [%]	IC50 [10]	Ki (HDAC1/REST corepressor 3 [11])
Cl.Cl.Cl.N[C@@H]1C[C@H]1c1ccc(NC(=O)CCC(=O)NCCCNCCCCNCCCNC(=O)c2ccc(NC(=O)CCCCCCC(=O)NO)cc2)cc1	39.6	16.3	52.7	68.6	50.2	3.85	0.0425	–	–	–	–
O=C(CCCCCCC(=O)Nc1ccccc1)NO [VORINOSTAT]	–	20.8	–	56.6	–	–	–	49.3	–	–	–
Cl.Cl.N[C@@H]1C[C@H]1c1ccc(NC(=O)CCC(=O)NCCCNCCCNC(=O)c2ccc(NC(=O)CCCCCCC(=O)NO)cc2)cc1	60.2	–	–	52	–	2.4	0.0269	–	35.8	–	–
Cl.Cl.Cl.N[C@@H]1C[C@H]1c1ccc(NC(=O)CCC(=O)NCCCCCCNCCCCCCCCNCCCCCCNC(=O)c2ccc(NC(=O)CCCCCCC(=O)NO)cc2)cc1	–	–	–	–	–	–	–	–	–	Nd(Insoluble)	Nd(Insoluble)
